Data as given in the CheMixHub viscosity set.

Experiment: xn = mol fraction of the nth substance listed

C=C(C)C(=O)OC + CC(C)O
viscosity [mPa·s], 101.3 kPa
Conditions | 298.15 K | 308.15 K
x1 = 0.0556 | 1.716 | 1.339
x1 = 0.1557 | 1.314 | 1.051
x1 = 0.2605 | 1.034 | 0.845
x1 = 0.3541 | 0.862 | 0.717
x1 = 0.4318 | 0.76 | 0.638
x1 = 0.5041 | 0.689 | 0.583
x1 = 0.5537 | 0.651 | 0.553
x1 = 0.6557 | 0.596 | 0.509
x1 = 0.7561 | 0.567 | 0.484
x1 = 0.8542 | 0.559 | 0.477
x1 = 0.9512 | 0.571 | 0.483

CCCCCCCCCCCC(=O)[O-].[Na+] + CCCCCCCCCC(=O)O
101 kPa, x1 = 0.2
Conditions | viscosity [mPa·s]
293.15 K | 76.59
298.15 K | 60.48
303.15 K | 48.43
308.15 K | 39.29
313.15 K | 32.27
318.15 K | 26.79
323.15 K | 22.48

CCCCCCCCCCCCCCCCCCO + CCCO
298.15 K, 101 kPa
Conditions | viscosity [mPa·s]
x1 = 0.0016 | 2.071
x1 = 0.0028 | 2.011
x1 = 0.0106 | 2.164
x1 = 0.0212 | 2.332

CCCC[P+](C)(CCCC)CCCC.COS(=O)(=O)[O-] + CN(C)C=O
100 kPa
Conditions | viscosity [mPa·s]
293.15 K, x1 = 0.4272 | 67.15
303.15 K, x1 = 0.8837 | 286.5
318.15 K, x1 = 0.6717 | 59.15
323.15 K, x1 = 0.7768 | 84.15

ClCCCCCCCl + Cc1ccccc1
viscosity [mPa·s], 101 kPa
Conditions | x1 = 0.07864 | x1 = 0.1578 | x1 = 0.2467 | x1 = 0.3346 | x1 = 0.4309 | x1 = 0.533 | x1 = 0.6475 | x1 = 0.755 | x1 = 0.8707
308.15 K | 0.536 | 0.604 | 0.676 | 0.764 | 0.868 | 0.978 | 1.121 | 1.267 | 1.44
313.15 K | 0.514 | 0.57 | 0.639 | 0.712 | 0.807 | 0.911 | 1.043 | 1.175 | 1.345
318.15 K | 0.49 | 0.543 | 0.605 | 0.682 | 0.769 | 0.865 | 0.983 | 1.095 | 1.228
